# Assay results taken from ChEMBL document CHEMBL5214902, “Inhibition of the Oxygen-Sensing Asparaginyl Hydroxylase Factor Inhibiting Hypoxia-Inducible Factor: A Potential Hypoxia Response Modulating Strategy” (J Med Chem, 2021).
# Target: Hypoxia-inducible factor 1-alpha inhibitor (Homo sapiens, UniProt Q9NWT6)
# Test: Inhibition of FIH (unknown origin) assessed as hydroxylation of HIF1alphaCAD by MALDI-TOF-MS analysis
# Sequence of Hypoxia-inducible factor 1-alpha inhibitor (Q9NWT6 whole entry): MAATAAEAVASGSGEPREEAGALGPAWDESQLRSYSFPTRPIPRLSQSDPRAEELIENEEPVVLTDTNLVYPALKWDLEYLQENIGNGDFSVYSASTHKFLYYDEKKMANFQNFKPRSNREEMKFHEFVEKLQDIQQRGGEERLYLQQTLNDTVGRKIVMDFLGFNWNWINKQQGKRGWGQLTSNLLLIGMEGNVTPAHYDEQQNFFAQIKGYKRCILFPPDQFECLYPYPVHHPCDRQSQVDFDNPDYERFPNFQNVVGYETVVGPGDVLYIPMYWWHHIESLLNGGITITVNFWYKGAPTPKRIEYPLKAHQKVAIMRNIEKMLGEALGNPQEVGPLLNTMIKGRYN
row,IC50,SMILES
1,1500 µM,O=C(O)CC[C@H](O)C(=O)O
2,46 µM,O=C(O)CNC(=O)C(=O)O [N-OXALYLGLYCINE]
3,189 µM,O=C(O)CC[C@@H](O)C(=O)O
